Bounds are passed on as bounds.

Broadly, the melting point is the temperature, or range, at which the solid turns liquid. The molecule `CCN(CC)CCNC(=O)c1cc(Cl)c(N)cc1OCCS(C)=O` (stereo not drawn) registered a melting point of 110 to 114 °C. `CCCN1C(=O)COc2ccc(N3C(=O)C(C)=C(C)C3=O)cc21` gave a melting point of 147 to 149 °C. `c1ccc2[nH]c(CN3CCN(c4nccs4)CC3)nc2c1` gave a melting point of 203 to 205 °C. In the case of `COC(=O)c1cn(C2=CC(C)(C)Oc3ccc(C#N)cc32)c2ccccc12`, the melting point lay within 177 to 180 °C. Molecule `O=C(NC1CCN(CCc2ccc(Cl)cc2)C1)C12CC3CC(CC(C3)C1)C2` (stereo not drawn) showed a melting point of 94 to 95 °C.

Molecule `CCOC(=O)NNc1cc(C)c(-c2ccc(C#N)cc2)nn1` returned a melting point of 189 to 191 °C.

Molecule `COC(=O)CCn1c(=O)n2cc(C)cc2c2ccccc21` had a melting point of 89 to 91 °C. In turn, `c1cnc2ncn(CCCCc3nnnn3C3CCCCC3)c2c1` showed a melting point of 143 to 146 °C. Molecule `CCOc1nc(N)nc(-c2ccccc2)c1-c1ccc(=O)n(C(C)C)n1` came in with a melting point of 188 °C.

Turning to `O=C(Nc1ccc(N2CCCC2=O)cc1)OCc1ccccc1`, the melting point was determined as 174 °C. `O=C(N[C@@H]1CC(=O)N(Cc2ccccc2)C1=O)OCc1ccccc1` registered a melting point of 143 to 144 °C. For `CCCc1c2c(c(C(C)(C)C)c(OC(C)=O)c1C(C)(C)C)CC(C)(C)O2` the value was 106 °C.

The molecule `CCOC(=O)CCc1cn(-c2ccc(Cl)cn2)nc1C(C)C` came in with a melting point of 70 to 71 °C. Consider `CC(C)(O)c1ccc(-c2cnc3[nH]c(=O)n(CC4CCOCC4)c3n2)cn1`, for which the melting point lay in the range of 207 to 209 °C.

Regarding `COc1cccc(CC(=O)O)c1OCc1cc(OC(C)C)nn1Cc1ccc(Cl)cc1Cl`, the melting point was 127 to 128 °C. In the case of `CCC(CCCNC(=O)Nc1cccnc1)NC(=O)Nc1cccnc1` (stereo not drawn), the melting point is 218 to 219 °C. For `CC(Cl)(Cl)C(NC(=O)c1ccc(Br)cc1)NC(=NC#N)Nc1ccc(Cl)nc1` (stereo not drawn) the value was 215 to 216 °C; for `C=C(c1ccc(-n2ccnc2)nc1)C(O)(Cn1cncn1)c1ccc(F)cc1F` (stereo not drawn), 145 to 148 °C. For the molecule `CCN(c1cccc2cc(C3=NCCS3)[nH]c12)S(=O)(=O)c1cccs1`, the melting point is 206 to 207 °C. For `CCNc1nc(SC)ncc1C=O` the value was 58 to 61 °C; for `Cc1ccccc1C(=O)P1(=O)Oc2ccccc2-c2ccccc21` (stereo not drawn), 102 to 104 °C.

`Cn1c(COc2ccc(CC3SC(=O)NC3=O)cc2)nc2ccc(OCCc3ccc(C(C)(C)C)c(NC(=O)Nc4ccc(C(F)(F)F)cc4)c3)cc21` (stereo not drawn): the melting point was 165 to 167 °C. `CCCCC1CCC(c2ccc(C(=O)CC(=O)C(F)(F)F)cc2)CC1` (stereo not drawn) gave a melting point of 65 °C.

Consider `O=C1CNC(=O)N1Cc1ccc2ccn(C3CCN(CCc4ccc(F)cc4)CC3)c2c1`, for which the melting point is 156 to 157 °C. In turn, `CC(Oc1ccc(Oc2ccc(C(F)(F)F)cc2)cc1)C(=O)OCC#N` (stereo not drawn) returned a melting point of 53 to 56 °C.

For the molecule `Cn1cc(-c2ccc(Cl)c(OC3SCC(O)C(O)C3O)c2)cn1` (stereo not drawn), the melting point stood at 158 °C. In turn, `CC(=O)OCCC1CCc2cccc3c(C4=C(c5cn(C)c6ccccc56)C(=O)OC4=O)cn1c23` (stereo not drawn) yielded a melting point of 143 to 146 °C.

`ICCCOc1ccc(OCCCI)cc1` registered a melting point of 93 to 95 °C. On to `COc1ccc(-c2nnsc2-c2ccc(OC)cc2)cc1`, for which the melting point was in the range of 80 to 82 °C. `COc1ccc(C(=O)O)cc1Oc1ccccc1` gave a melting point of 186 to 187 °C. For `Cc1cccc(CCC(CO)n2cnc(C(N)=O)c2)c1` (stereo not drawn) the value was 116 to 118 °C; for `CC1(C)CC(=O)C2=C(C1)NC1=C(C(=O)CC(C)(C)C1)C2c1ccc2ccccc2c1`, greater than 300 °C. Consider `c1ccc2c(N3CCOCC3)nc(N3CCOCC3)nc2c1`, for which the melting point was in the range of 172 to 174 °C. For `O=C(Nc1cc(F)cc(F)c1)Oc1ccccc1` the value was 123 to 125 °C.

For `COc1ccc(-c2nc3ccc(C(C)(C)CNS(C)(=O)=O)cc3[nH]2)cc1`, the melting point lay within 146 to 148 °C. The molecule `CCCC(=O)c1ccc(OC)c(C(=O)O)c1` showed a melting point of 105 to 106 °C. `CC(C)(C)c1cc(-c2nnc(NN)s2)cc(C(C)(C)C)c1O` gave a melting point of 109 to 122 °C. For `CCCC(=O)c1cc(C(=O)O)c2cc(Cc3ccc(F)cc3)cnc2c1O` the value was 232 to 234 °C. As for `COc1ccc(C2=NN(CCCCCCBr)C(=O)[C@H]3CC=CC[C@@H]23)cc1OC` (relative stereo), the melting point was 55 to 56 °C.

Take `CCC1(c2cccc(OCc3ccc4c(ccc(=O)n4C)c3)c2)CCOCC1`: the melting point is 139 °C.

With `O=C1COc2cc(NC(=O)C(=O)N3CCC(Oc4ccccc4)CC3)ccc2N1`, the melting point lay within 196 to 199 °C.

`CCC(=O)N1CCN(c2n[nH]c3ncnc(Nc4cccc(Cl)c4)c23)CC1`: the melting point was 247 to 250 °C. For `CC(C)c1nn(-c2ccc(C(F)(F)F)cn2)cc1COc1cccc(CC(=O)O)c1`, the melting point was 114 to 115 °C. With `CC(C)[C@H](NC(=O)OCc1ccccc1)C(=O)N(CC(=O)O)C1CCCCCC1`, the melting point fell in the range of 48 to 51 °C. As for `COc1ccc(-c2cc(=O)c3c(O)cc(O)c(-c4cc(-c5cc(=O)c6c(O)cc(O)cc6o5)ccc4OC)c3o2)cc1`, the melting point lay in the range of 219 to 222 °C. `Cc1ccc(C)n1-c1c(SC(F)(F)F)c(C#N)nn1-c1c(Cl)cc(C(F)(F)F)cc1Cl`: the melting point lay within 142 to 144 °C. For `COc1cc(CBr)c(OC)cc1/C=C/c1cc(OC)c(CBr)cc1OC` the value was 165 to 167 °C. In turn, `c1cc(Nc2ccc3[nH]ncc3c2)ccn1` returned a melting point of 189 to 190 °C. On to `O=C(c1cn(-c2ccccc2)nc1-c1ccc([N+](=O)[O-])o1)N1CCCC1`, for which the melting point fell in the range of 236 to 238 °C. The molecule `Cc1ccc2c(=O)[nH]c(N3CCN(CCO)CC3)cc2c1` came in with a melting point of 236 to 237 °C. Molecule `Nc1nc2[nH]c(CCCCCc3ccc(C(=O)N[C@@H](CCC(=O)O)C(=O)O)s3)cc2c(=O)[nH]1` returned a melting point of 181 to 182 °C.

Molecule `CC1OC(=O)c2c(S)cccc21` (stereo not drawn) gave a melting point of 40 °C.

With `CCOc1cn(C)cc(-c2cccc(C(F)(F)F)c2)c1=S`, the melting point fell in the range of 153 to 155 °C. Take `NC(=S)NN=C(CCCCl)c1cccs1`: the melting point lay within 120 to 122 °C. Consider `Oc1ccc2cc(Br)ccc2c1Cl`, for which the melting point is 100 to 101 °C. For `Cn1cc(Br)cc1C=O` the value was 123 to 124 °C.

On to `CCC(c1cc(C(=O)Nc2ccc(-c3ccc(C(=O)NS(C)(=O)=O)cc3C)cc2)ccc1OC)N(C)C` (stereo not drawn), for which the melting point was in the range of 253 to 254 °C. For the molecule `COC(=O)c1cc2n(c1)CCc1ccccc1C2=O`, the melting point lay within 125 to 127 °C.

`CCCN1C(=O)C(NC(=O)C(N)Cc2ccccc2)N=C(N2CCN(C)CC2)c2ccccc21` (stereo not drawn) came in with a melting point of 152 to 153 °C. With `O=c1c2c(nc3ccc(Cl)cn13)C(=Cc1ccccc1)CC2`, the melting point fell in the range of 212 to 213 °C. Turning to `CC(c1oc2ccccc2c(=O)c1-c1cccc(F)c1)n1nc(C#CCO)c2c(N)ncnc21` (stereo not drawn), the melting point was 171 to 173 °C. `O=S(=O)(c1cc(Cl)[nH]c1-c1ccc(Cl)cc1)C(F)(F)F` yielded a melting point of 109 to 112 °C. `CC(=O)OC1C=C(C)C(=O)CC(C)(C)C1OC(=O)C=Cc1ccccc1` (stereo not drawn) yielded a melting point of 64 to 65 °C.

The record behind these values is a melting point compilation (Tetko et al.; mined from patent text by program, amines drawn as free bases though some values may be those of a salt).
